Each block holds one compound with its values, some of them ahead of it.
Tests used:
[1] = Animal weight in mice tumor xenograft model; type: in vivo, NOD-SCID mice; conditions: intratumoral, appx 1.125 mg three times a week for three weeks
Protocol: One million HCT116 cells were washed with PBS and injected subcutaneously (0.2 mL cell suspension in 50% matrigel) into 6-week-old NOD-SCID mice (Taconic Incorporation, Germantown, N.Y.) on both flanks. Once the tumors become palpable, 16 mice were randomized into two groups. In the treatment group, animals received direct intratumoral (IT) injection of appx 1.125 mg of G2.2 dissolved in 75 μl PBS (pH=7.4) solution three times a week for three weeks (a total of 10 mg of G2.2 over three weeks). Control animals were also received IT injection with 75 μl of vehicle alone (PBS) on the same schedule. Tumor size was measured three times a week using caliber and tumor volume was calculated as previously described. Mice were also weighed three times a week. All the animals were sacrificed within 1 week after completion of therapy using approved method of CO2 asphyxiation. Tumor xenografts were minced with scalpels blade into small pieces and then digested in DMEM/F12 medium containing 300 units/mL collagenase (Stem Cell Technologies) and 100 units/mL hyaluronidase (Stem Cell Technologies) for 1 hr at 37° C. Cells were then washed and re-suspended to a final concentration of 10^6 cell/mL in DMEM/2% FBS. Cell suspensions from the tumor samples were incubated with PE conjugated LGR5 or CXCR4 antibody for 30 minutes and washed two times with PBS buffer and then analyzed (FIG. 18A-B). […]

[2] = tested on: Panc-1 (pancreatic) cancer cell lines; assay: Primary spheroid formation assay, Panc-1; type: cell-based, human
Protocol: (§1) Primary (1°) Colonosphere Formation Assay. For primary sphere formation, cells were plated in non-treated, low adhesion, 96 wells plate at the concentration of 100 cells/100 μL/well in stem cell media (SCM) that consisted of DMEM:F12:AA (Gibco), supplemented with 1×B27 (Gibco), 20 ng/mL epidermal growth factor and 10 ng/mL fibroblast growth factor (Sigma). After four hour of incubation, vehicle (control) or NSGM at the desired concentrations were added to each well (at least in triplicates for each sample). On day five, numbers of spheres ranging from […] in diameter were counted using phase contrast microscope and percent inhibition was calculated compared to control.

[3] = tested on: self-renewal factors OCT4, BMI-1, c-MYC; assay: Western blot of self-renewal factors in spheroids; type: cell-based, human; conditions: 100 μM, HT-29
Protocol: (§2) Western Blotting Analysis. Western blot analysis was performed according to the standard protocol described in the literature. Briefly, HT-29 cells were plated in serum-free SCM in a low adhesion 6-well plate to obtain spheroids. Mature spheroids were treated on day 4 after plating, with vehicle or NSGMs for indicated time and cells were solubilized in lysis buffer (20 mM Na3PO4, 100 mM NaCl, 2 mM EDTA, 1% Nonidet P-40, 2.5 mM Na3VO4) containing protease (Roche) as well as phosphatase inhibitor cocktails (Sigma). Following centrifugation at 14,000 g for 15 min, the supernatant was used for Western blot analysis. In all analyses, protein concentration was determined by the Bio-Rad Protein Assay kit (Bio-Rad). Approximately 25-50 μg of protein was separated by polyacrylamide gel electrophoresis and was transferred to PVDF membrane (Bio-Rad). Blocking was done with 5% low fat milk powder for 1 hr followed by overnight incubation with primary antibody (dilution 1:1000): anti-CD44 (Cell Signaling), anti-EpCAM (Cell Signaling), anti-LGR5 (Origene), anti-CD133 ((Miltenyi Biotec), anti-CXCR4 (Abeam), anti-OCT4 (Cell Signaling), anti-BMI-1 (Millipore), anti-c-MYC (Millipore) and anti-CK20 (Abeam). This was followed by incubation with appropriate secondary antibody and protein bands were visualized using the enhanced chemiluminescence detection system and imaged with LAS-3000 Imaging System (FUJIFILM). Densitometry was determined by AIDA image analyzer software (Raytest) and results were calculated as relative intensity compared to control. All experiments were performed at least three times.

[4] = tested on: CSC markers CD44, CD133, EpCAM, LGR5, CXCR-4; assay: Western blot of CSC markers in HT-29 spheroids; type: cell-based, human; conditions: 100 μM; for reduction of expression of CSC markers (CD44, CD133, EpCAM, LGR5, CXCR-4): HT-29 spheroids, Western blot densitometry vs vehicle
Protocol: as §2

CSC markers mRNA = assay: Real-time PCR of CSC marker mRNA; type: cell-based, human; conditions: 6 hours following treatment
Protocol: Real-Time PCR Analysis. Total RNA was isolated using the mirVana™ miRNA Isolation Kit (Life technologies, Grand Island, N.Y.). 1 μg total RNA was reverse transcribed using First-Strand cDNA Synthesis Kit using hexamer reverse primer (Affymetrix). Real time QPCR was performed using RT^2 SYBR® Green qPCR Master mix (Qiagen) in a 7500 fast real time machine (Applied Biosystem). Relative expressions of mRNA were calculated using ΔΔCT methods using GAPDH as a loading control.

HCT-116 = assay: Primary spheroid formation assay, HCT-116; type: cell-based, human; conditions: HCT-116 (p53 null)
Protocol: as §1
(§3) In this screen, sulfated NSGMs that inhibit HT-29 growth under spheroid conditions, but not under monolayer conditions, were then assessed for retention of 2° and 3° spheroid growth inhibition profiles in the absence of NSGM. The latter screen is of particular importance as primary spheroid growth although selective for CSCs doses not distinguish between non self-renewing progenitors and self-renewing CSCs. […] These 11 NSGMs belonged to G2, G4, G11 and G12 scaffolds but only four of the six G2 molecules, one of the two G4, four of the seven G11 and two of the five G12 molecules satisfied the first screen.

[5] = tested on: HCT-116 cells, grown in spheroid condition; assay: Apoptosis assay (annexin V/propidium iodide and acridine orange/ethidium bromide); type: cell-based, human
Protocol: Apoptosis Assay. Human colon cancer HCT-116 cells, grown in spheroid condition were treated with vehicle or NSGMs for 24 hours. Following which cells were trypsinized and single cells were re-suspended at 10^6 cells/mL in PBS buffer. Two different methods were used to assess apoptosis induction. In the first methods, cells were incubated with propidium iodide and Annexin V-APC (ebioscience) and flow cytometric analyses were performed as above. […] Briefly, a small volume of cell suspension was mounted on a glass slide and incubated with 1 μl of AO/EB solution and mixed gently just prior to microscopy and quantification. At least 500 cells in 10-15 fields were examined in each sample using Nikon ECLIPSE E800M fluorescence microscope using 20× objective. […] The data was expressed as apoptosis index=[([apoptotic cells (NSGMs)/total cells (NSGMs)]/[apoptotic cells (vehicle)/total cells (vehicle)]).

HT-29 cell line = assay: MTT cell proliferation assay, monolayer growth; type: cell-based, human; conditions: monolayer conditions
Protocol: Cell Proliferation Assay. Cell proliferation was evaluated by (3-(4,5-dimethylthiazol-2-yl)-2,5-diphenyltetrazolium bromide) MTT cell proliferation assay. For HT-29 cell line approximately 2.5×10^3 cells/100 μL/well were plated in 96-well tissue culture treated plate. After overnight incubation at 37° C. vehicle (control) or NSGM was added at the desired concentration and the cells were further incubated for 60-72 h. At the end of the incubation, 10 μL of 5 mg/mL MTT solution (Sigma) made in phosphate buffered saline (PBS) (Gibco) was added to each well and incubated for minimum of 2 to 3 hr until crystals formation was observed. Following this, 150 μL of 4 mM HCl (Sigma) in isopropanol solution was added drop wise to each well and the mixture was triturated until the crystals dissolve completely. Finally, the plate was placed on the spectrophotometer reader and read at 590 nm and growth inhibition was calculated as percent of control.

HCT116 cells = assay: Mice tumor xenograft model, intratumoral G2.2; type: in vivo, NOD-SCID mice
Protocol: One million HCT116 cells were washed with PBS and injected subcutaneously (0.2 mL cell suspension in 50% matrigel) into 6-week-old NOD-SCID mice (Taconic Incorporation, Germantown, N.Y.) on both flanks. Once the tumors become palpable, 16 mice were randomized into two groups. In the treatment group, animals received direct intratumoral (IT) injection of appx 1.125 mg of G2.2 dissolved in 75 μl PBS (pH=7.4) solution three times a week for three weeks (a total of 10 mg of G2.2 over three weeks). Control animals were also received IT injection with 75 μl of vehicle alone (PBS) on the same schedule. Tumor size was measured three times a week using caliber and tumor volume was calculated as previously described. Mice were also weighed three times a week. All the animals were sacrificed within 1 week after completion of therapy using approved method of CO2 asphyxiation. Tumor xenografts were minced with scalpels blade into small pieces and then digested in DMEM/F12 medium containing 300 units/mL collagenase (Stem Cell Technologies) and 100 units/mL hyaluronidase (Stem Cell Technologies) for 1 hr at 37° C. Cells were then washed and re-suspended to a final concentration of 10^6 cell/mL in DMEM/2% FBS. Cell suspensions from the tumor samples were incubated with PE conjugated LGR5 or CXCR4 antibody for 30 minutes and washed two times with PBS buffer and then analyzed (FIG. 18A-B). […] However, none of these values were statistically significant (p>0.1).

HT-29 cells [6] = assay: Primary (1°) colonosphere formation assay, HT-29 (Screen 1); type: cell-based, human; conditions: steep dose-response profile; read-out: apparent IC50 for primary spheroid inhibition
Protocol: as §1, §3

CK20 = assay: Differentiation assay (CK20 expression) in colonosphere cells; type: cell-based, human; conditions: spheroid cells on collagen, 2.5% serum, Western blot and immunocytochemistry
Protocol: Differentiation Assay. Single cell suspension from mature HT-29 colonosphere pre-treated with vehicle or G2.2 for 24 hours were plated on collagen coated glass cover slips or flasks in the presence of media supplemented with 2.5% FBS containing G2.2 or vehicle. At indicated time points, cells lysate was examined for CK-20 expression with western-blot as above. Alternatively, cells were fixed with 4% paraformaldehyde for 20 minutes at room temperature, permeabilized for 5 min in 0.5% Triton X-100 solution and blocked in PBS containing 1% BSA for one hour prior to incubation with anti-CK-20 antibody (Abeam) for 2 hours. Cells were then washed, incubated for 60 min with Alexa Fluor conjugate secondary antibodies, rinsed with blocking buffer and mounted on slides with DAPI containing ProLong® Gold Antifade Reagent (Invitrogen). Fluorescently labeled cells were examined using a Zeiss LSM700 laser scanning confocal microscope (Zeiss Micro imaging Inc.). Alexa Flour® 555 signals were imaged sequentially at 40× magnification in frame-interlaced mode to eliminate cross talk between channels.

HT-29 colon cancer cells = assay: Cell cycle distribution in spheroid cells; type: cell-based, human; conditions: 24 hours, 100 μM, vs vehicle
LGR5 = assay: Flow cytometry analysis of CSC markers in HT-29 spheroids; type: cell-based, human; conditions: 100 μM, vs vehicle-treated controls
Protocol: Flow Cytometry Analysis. Human colon cancer HT-29 cells, grown in spheroid or monolayer condition were treated with vehicle or NSGMs for 24 hours, were trypsinized and single cells were re-suspended at 10^6 cells/mL in PBS buffer. Cells were incubated with fluorophore conjugated antibody for 30 minutes at 4° C. and washed once with PBS buffer prior to analysis. Following antibody and dilution were used: LGR5-PE) (Dilution 1:50, Origene), DCLK1 (Dilution 1:33, Abeam). Cell sorting was performed using FACSAria™ II High-Speed Cell Sorter (BD Biosciences) and data were analyzed with FCS Express 4 Flow Cytometry software (De-Novo Software).

HT-29 cells [7] = assay: Secondary (2°) and tertiary (3°) colonosphere assay, HT-29 (Screen 2); type: cell-based, human; conditions: no NSGM in 2° and 3° growth assays
Protocol: Secondary (2°) and Tertiary (3°) Colonosphere Assay. For secondary colonospheres, the 96-well plate of primary spheres was centrifuged at speed of 1000 rpm for 1 min and the supernatant was removed. Spheres that settled at the base of the plate were trypsinized with 20 μL/well and single cell suspension was prepared using vigorous mechanical dissociation. The numbers of viable cell were counted with 1:5 ratio of cell:trypan blue and then re-plated at 100 cells/[…] in SCM media in a low adhesion plate. No further treatment with NSGMs was performed. Numbers of spheres were counted as above on day 5. The same method was repeated for tertiary spheres.
The 11 sulfated NSGMs were then studied for their effect on 2° and 3° sphere formation (HT-29 and HCT-116) in Screen 2. By design, this screen reflects a test of true self-renewability of CSCs.^2,3 Single cell suspension obtained from primary spheres formed above was then cultured in the absence of NSGM.

[8] = compared to vehicle treated xenografts, flow cytometry

overall animal weight [1]: no effect
IC50 (HT-29 cells [6]): ~58 µM
Structure (SMILES): O=c1c(OS(=O)(=O)[O-])c(-c2ccc(OS(=O)(=O)[O-])c(OS(=O)(=O)[O-])c2)oc2cc(OS(=O)(=O)[O-])cc(OCCCOc3cc(OS(=O)(=O)[O-])cc4oc(-c5ccc(OS(=O)(=O)[O-])c(OS(=O)(=O)[O-])c5)c(OS(=O)(=O)[O-])c(=O)c34)c12.[Na+].[Na+].[Na+].[Na+].[Na+].[Na+].[Na+].[Na+] [G2.2]
inhibition of spheroid formation, potency relative to HT-29 [2]: essentially identical potency
BMI-1 expression [3]: significant inhibition
OCT-4 levels [3]: little effect
c-MYC expression [3]: significant inhibition
protein expression of CSC markers (LGR5, CXCR4) ([4]; 6 hours): minimal change
protein expression of CSC markers (LGR5, CXCR4) ([4]; 24 hours): significant decrease
reduction of expression of CSC markers (CD44, CD133, EpCAM, LGR5, CXCR-4) [4]: 25-55%
mRNA levels of several CSC markers (CSC markers mRNA): marked decrease
inhibition of spheroid formation, potency relative to HT-29 (HCT-116): essentially identical potency
induction of apoptosis in spheroid cells ([5]; annexin V labeling and acridine orange/ethidium bromide staining, 100 μM, 24 hours, vs vehicle): 2 to 3 fold
induction of apoptosis in CSC-poor monolayer counterparts ([5]; monolayer cells): did not induce apoptosis
inhibition of monolayer growth (bulk tumor cells) (HT-29 cell line): minimal effect
reduction in tumor volume (HCT116 cells; between days 5-19, intratumoral, not statistically significant (p>0.1)): 20-42%
attenuation of CXCR4 positive cells in xenografts (HCT116 cells; [8]): ~75%
attenuation of LGR5 positive cells in xenografts (HCT116 cells; [8]): ~78%
CK20 expression (colonic differentiation marker) (CK20): modest induction
proportion of spheroid cells in G1 phase (cell cycle progression) (HT-29 colon cancer cells): small increase
reduction in LGR5 (hi) cells (LGR5): 39%

Structure (SMILES): O=c1c(OS(=O)(=O)[O-])c(-c2ccc(OS(=O)(=O)[O-])c(OS(=O)(=O)[O-])c2)oc2cc(OS(=O)(=O)[O-])cc(OCCOc3cc(-c4oc5cc(OS(=O)(=O)[O-])cc(OCCOc6cc(OS(=O)(=O)[O-])cc7oc(-c8ccc(OS(=O)(=O)[O-])c(OS(=O)(=O)[O-])c8)c(OS(=O)(=O)[O-])c(=O)c67)c5c(=O)c4OS(=O)(=O)[O-])ccc3OS(=O)(=O)[O-])c12.[Na+].[Na+].[Na+].[Na+].[Na+].[Na+].[Na+].[Na+].[Na+].[Na+].[Na+] [G4.1]
reduction of expression of CSC markers (CD44, CD133, EpCAM, LGR5, CXCR-4) [4]: no effect
Screen 2 outcome (2° and 3° spheroid growth inhibition) (HT-29 cells [7]): completely failed

From patent US9850221B2, “Sulfated and unsulfated flavonoid oligomers as cancer therapeutics” (VIRGINIA COMMONWEALTH UNIVERSITY, priority 2013, dated 2017)
